Data set [1] relates to Yersinia pseudotuberculosis.
Another data set deals with LcrF (VirF) (Yersinia pestis, UniProt P28808). Briefly: biochemical. Format: binding, Y. pseudotuberculosis.
A further data set has as its target T1, ExsA (Pseudomonas aeruginosa, UniProt P26993).
T1 construct: made in house
T1 sequence (P26993 1-278): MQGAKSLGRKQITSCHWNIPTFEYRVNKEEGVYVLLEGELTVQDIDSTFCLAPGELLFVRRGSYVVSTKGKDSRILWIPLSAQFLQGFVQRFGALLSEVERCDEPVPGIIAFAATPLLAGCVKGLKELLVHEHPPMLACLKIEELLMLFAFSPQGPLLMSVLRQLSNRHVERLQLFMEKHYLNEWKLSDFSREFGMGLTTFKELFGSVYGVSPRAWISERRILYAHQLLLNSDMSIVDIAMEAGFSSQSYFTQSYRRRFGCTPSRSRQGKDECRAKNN
Briefly: In vitro activity of Mar inhibitors against ExsA: cell-free DNA binding assay. The note with it: purified ExsA from P. aeruginosa, inhibition of DNA binding in vitro.

The next data set relates to P. aeruginosa. The data set can be described thus: Whole cell assay: cytotoxicity of P. aeruginosa toward J774 cells (CytoTox 96, LDH release). The note with it: percent cytotoxicity of treated P. aeruginosa toward J774 cells. On the technique in general: Release of lactate dehydrogenase indicates damage to the cell membrane.

Structures are written as SMILES.

LcrF (VirF), sequence (P28808 whole entry, looked up): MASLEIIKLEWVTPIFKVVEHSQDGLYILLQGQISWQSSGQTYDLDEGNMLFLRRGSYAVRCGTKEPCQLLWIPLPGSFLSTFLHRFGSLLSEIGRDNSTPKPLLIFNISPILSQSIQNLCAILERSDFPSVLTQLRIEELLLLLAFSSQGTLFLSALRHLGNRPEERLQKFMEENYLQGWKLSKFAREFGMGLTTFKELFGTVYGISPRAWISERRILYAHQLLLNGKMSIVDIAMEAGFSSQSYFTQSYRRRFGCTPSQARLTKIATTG

As usually defined, the EC50 is the concentration that produces a half-maximal response. Lower therefore signals a more potent agent. `O=C(Nc1ccc(-c2nc3ccc([N+](=O)[O-])cc3n2O)nc1)c1ccc(F)cc1` [AF]: the “Cytotoxicity at 50 μg/mL Yersinia” value in data set [1] was “* (key: *: percent cytotoxicity above 75% at 50 μg/mL; **: cytotoxicities below 75% at 50 μg/mL)”. The EC50 on LcrF (VirF) and on ExsA was above 25.1 µM in each case.
Regarding `O=C(Nc1ccc(-c2nc3ccc([N+](=O)[O-])cc3n2OCP(=O)(O)O)cc1)c1ccc(F)cc1` [AK], in data set [1], the “Cytotoxicity at 50 μg/mL Yersinia” value is recorded as “* (key: *: percent cytotoxicity above 75% at 50 μg/mL; **: cytotoxicities below 75% at 50 μg/mL)”.
In the case of `CCOP(=O)(COn1c(-c2ccc(NC(=O)c3ccc(F)cc3)cc2)nc2ccc([N+](=O)[O-])cc21)OCC` [AU], in data set [1], the “Cytotoxicity at 50 μg/mL Yersinia” value is listed as “* (key: *: percent cytotoxicity above 75% at 50 μg/mL; **: cytotoxicities below 75% at 50 μg/mL)”.
The same measure, in the same setting: for `O=C(Nc1ccc(-c2nc3ccncc3n2O)cc1)c1ccc(F)cc1` [AX] the value was “* (key: *: percent cytotoxicity above 75% at 50 μg/mL; **: cytotoxicities below 75% at 50 μg/mL)”; for `O=C(/C=C/c1ccc(F)cc1)Nc1ccc(-c2nc3ccncc3n2O)cc1` [AY], “* (key: *: percent cytotoxicity above 75% at 50 μg/mL; **: cytotoxicities below 75% at 50 μg/mL)”.
`Cc1cc(-c2nc3ccc([N+](=O)[O-])cc3n2O)ccc1NC(=O)/C=C/c1ccc(F)cc1` [BB]: the “Cytotoxicity at 50 μg/mL Yersinia” value in data set [1] is reported as “* (key: *: percent cytotoxicity above 75% at 50 μg/mL; **: cytotoxicities below 75% at 50 μg/mL)”. For the same compound, the EC50 was 10.1 to 25 µM at LcrF (VirF) and above 25.1 µM on ExsA.
Taken in the same sequence, the figures for `O=C(Nc1ccc(-c2nc3ccc([N+](=O)[O-])cc3n2O)cc1)c1ccc2c(c1)CCCC2=O` [BD] were “* (key: *: percent cytotoxicity above 75% at 50 μg/mL; **: cytotoxicities below 75% at 50 μg/mL)”, above 25.1 µM and above 25.1 µM.
As to `CC(=O)c1ccc(C(=O)Nc2ccc(-c3nc4ccc([N+](=O)[O-])cc4n3O)cc2C)cc1` [BF], in data set [1], the “Cytotoxicity at 50 μg/mL Yersinia” value is “* (key: *: percent cytotoxicity above 75% at 50 μg/mL; **: cytotoxicities below 75% at 50 μg/mL)”. Besides, the EC50 on ExsA was below 10 µM.
`CN(C)C(=O)c1ccc(C(=O)Nc2ccc(-c3nc4ccc([N+](=O)[O-])cc4n3O)cc2)cc1` [BP]: the “Cytotoxicity at 50 μg/mL Yersinia” value in data set [1] is “* (key: *: percent cytotoxicity above 75% at 50 μg/mL; **: cytotoxicities below 75% at 50 μg/mL)”. The “Cytotoxicity at 50 μg/mL Pseudomonas” value in the data set on P. aeruginosa is given as “* (percent cytotoxicities above 75% at 50 mg/mL)”.
On to `CN(C)CCN(C)c1cc2nc(-c3ccc(NC(=O)/C=C/c4ccc(F)cc4)cc3)n(O)c2cc1[N+](=O)[O-]` [CE], for which the EC50 on LcrF (VirF) and on ExsA was below 10 µM throughout. For the same compound, the “Cytotoxicity at 50 μg/mL Pseudomonas” value in the data set with P. aeruginosa is “** (cytotoxicities below 75% at 50 mg/mL)”.
`CN1CCN(CCOc2cc3nc(-c4ccc(NC(=O)/C=C/c5ccc(F)cc5)cc4)n(O)c3cc2[N+](=O)[O-])CC1` [CF]: the EC50 at LcrF (VirF) and on ExsA was below 10 µM each time. For the same compound, the “Cytotoxicity at 50 μg/mL Pseudomonas” value with P. aeruginosa was “* (percent cytotoxicities above 75% at 50 mg/mL)”.
Compound `CN(C)CCOc1cc2nc(-c3ccc(NC(=O)/C=C/c4ccc(F)cc4)cc3)n(O)c2cc1[N+](=O)[O-]` [CG] gave an EC50 on ExsA above 25.1 µM. The “Cytotoxicity at 50 μg/mL Pseudomonas” value in the data set on P. aeruginosa is given as “* (percent cytotoxicities above 75% at 50 mg/mL)”.
With `O=C(/C=C/c1ccc(F)cc1)Nc1ccc(-c2nc3ccc(-n4ccnc4)cc3n2O)cc1` [CH], the EC50 at LcrF (VirF) was above 25.1 µM; at ExsA, 10.1 to 25 µM. In the data set on P. aeruginosa, the “Cytotoxicity at 50 μg/mL Pseudomonas” value is given as “* (percent cytotoxicities above 75% at 50 mg/mL)”.
Turning to `CC(=O)c1ccc(/C=C/C(=O)Nc2ccc(-c3nc4cc(OCCN5CCN(C)CC5)c([N+](=O)[O-])cc4n3O)cc2)cc1` [CI], the EC50 on LcrF (VirF) and at ExsA was below 10 µM each time. In the data set with P. aeruginosa, the “Cytotoxicity at 50 μg/mL Pseudomonas” value is “** (cytotoxicities below 75% at 50 mg/mL)”.
Take `CC(=O)c1ccc(/C=C/C(=O)Nc2ccc(-c3nc4cc(OCCN5CCOCC5)c([N+](=O)[O-])cc4n3O)cc2)cc1` [CJ]: the “Cytotoxicity at 50 μg/mL Pseudomonas” value in the data set with P. aeruginosa was “** (cytotoxicities below 75% at 50 mg/mL)”.
Regarding `CC(=O)c1ccc(/C=C/C(=O)Nc2ccc(-c3nc4ccc(C#N)cc4n3O)cc2)cc1` [CK], the EC50 at LcrF (VirF) and on ExsA was 10.1 to 25 µM throughout. The “Cytotoxicity at 50 μg/mL Pseudomonas” value in the data set on P. aeruginosa was “** (cytotoxicities below 75% at 50 mg/mL)”.
On to `N#Cc1ccc2nc(-c3ccc(NC(=O)c4ccc(-n5ccnc5)cc4)cc3)n(O)c2c1` [CO], for which the EC50 was 10.1 to 25 µM at LcrF (VirF) and above 25.1 µM at ExsA. The “Cytotoxicity at 50 μg/mL Pseudomonas” value in the data set on P. aeruginosa is “** (cytotoxicities below 75% at 50 mg/mL)”.
Regarding `NC(=O)c1ccc2nc(-c3ccc(NC(=O)c4ccc(F)cc4)cc3)n(O)c2c1` [Compound AD, 2-[4-(4-Fluoro-benzoylamino)-phenyl]-3-hydroxy-3H-benzoimidazole-5-carboxylic Acid Amide], the “Cytotoxicity at 50 μg/mL Yersinia” value in data set [1] is given as “* (key: *: percent cytotoxicity above 75% at 50 μg/mL; **: cytotoxicities below 75% at 50 μg/mL)”.
On the same count and under the same terms, for `O=C(Nc1ccc(-c2nc3ccc([N+](=O)[O-])cc3n2O)c(OCP(=O)(O)O)c1)c1ccc(F)cc1` [Compound AR, [5-(4-Fluoro-benzoylamino)-2-(1-hydroxy-6-nitro-1H-benzoimidazol-2-yl)-phenoxymethyl]-phosphonic Acid] the value was “* (key: *: percent cytotoxicity above 75% at 50 μg/mL; **: cytotoxicities below 75% at 50 μg/mL)”.
On to `O=C(/C=C/c1ccc(-n2ccnc2)cc1)Nc1ccc(-c2nc3ccc([N+](=O)[O-])cc3n2O)cc1` [Compound BK, (E)-N-[4-(1-Hydroxy-6-nitro-1H-benzoimidazol-2-yl)-phenyl]-3-(4-imidazol-1-yl-phenyl)-acrylamide], for which the “Cytotoxicity at 50 μg/mL Yersinia” value in data set [1] is reported as “** (key: *: percent cytotoxicity above 75% at 50 μg/mL; **: cytotoxicities below 75% at 50 μg/mL)”. This compound also yielded an EC50 at ExsA below 10 µM. For the same compound, the “Cytotoxicity at 50 μg/mL Pseudomonas” value in the data set on P. aeruginosa was “** (cytotoxicities below 75% at 50 mg/mL)”.
Consider `O=C(/C=C/c1ccc(F)cc1)Nc1ccc(-c2nc3cc(F)c([N+](=O)[O-])cc3n2O)cc1` [Compound BO, N-[4-(5-Fluoro-1-hydroxy-6-nitro-1H-benzoimidazol-2-yl)-phenyl]-3-(4-fluoro-cinnamyl)-amide], for which the EC50 at LcrF (VirF) and on ExsA was above 25.1 µM each time. The “Cytotoxicity at 50 μg/mL Pseudomonas” value with P. aeruginosa was “** (cytotoxicities below 75% at 50 mg/mL)”.
On to `CC(=O)c1ccc(C(=O)Nc2ccc(-c3nc4ccc(-n5cccn5)cc4n3O)cc2)cc1` [Compound CM, 4-Acetyl-N-[4-(1-hydroxy-6-pyrazol-1-yl-1H-benzoimidazol-2-yl)-phenyl]-benzamide], for which the “Cytotoxicity at 50 μg/mL Pseudomonas” value with P. aeruginosa is “* (percent cytotoxicities above 75% at 50 mg/mL)”.
The same measure, in the same setting: for `CC(=O)c1ccc(C(=O)Nc2ccc(-c3nc4ccc(-n5ccnc5)cc4n3O)cc2)cc1` [Compound CN, 4-Acetyl-N-[4-(1-hydroxy-6-imidazol-1-yl-1H-benzoimidazol-2-yl)-phenyl]-benzamide] the value was “* (percent cytotoxicities above 75% at 50 mg/mL)”.
Turning to `O=C(O)COn1c(-c2ccc(NC(=O)c3ccc(F)cc3)cc2)nc2ccc([N+](=O)[O-])cc21` [Compound V, {2-[4-(4-Fluoro-benzoylamino)-phenyl]-6-nitro-benzoimidazol-1-yloxy}-acetic Acid], the “Cytotoxicity at 50 μg/mL Yersinia” value in data set [1] is given as “* (key: *: percent cytotoxicity above 75% at 50 μg/mL; **: cytotoxicities below 75% at 50 μg/mL)”. The compound also registered an EC50 on LcrF (VirF) above 25.1 µM.
As to `CC(C)c1ccc(/C=C/C(=O)Nc2ccc(-c3nc4ccc([N+](=O)[O-])cc4n3O)cc2)cc1` [H], the “Cytotoxicity at 50 μg/mL Yersinia” value in data set [1] was “* (key: *: percent cytotoxicity above 75% at 50 μg/mL; **: cytotoxicities below 75% at 50 μg/mL)”. Also, the concentration for a half-maximal effect (EC50) at LcrF (VirF) and at ExsA was above 25.1 µM in each case.
As for `C/C(=C\c1ccccc1)C(=O)Nc1ccc(-c2nc3ccc([N+](=O)[O-])cc3n2O)cc1` [I], the “Cytotoxicity at 50 μg/mL Yersinia” value in data set [1] was “* (key: *: percent cytotoxicity above 75% at 50 μg/mL; **: cytotoxicities below 75% at 50 μg/mL)”. Also, the EC50 at LcrF (VirF) is above 25.1 µM.
`O=C(Nc1ccc2nc(-c3ccc([N+](=O)[O-])cc3)n(O)c2c1)c1ccc(F)cc1` [L]: in data set [1], the “Cytotoxicity at 50 μg/mL Yersinia” value was “* (key: *: percent cytotoxicity above 75% at 50 μg/mL; **: cytotoxicities below 75% at 50 μg/mL)”.
For the compound `NC(=NO)c1ccc2nc(-c3ccc(NC(=O)c4ccc(F)cc4)cc3)n(O)c2c1` [M], the “Cytotoxicity at 50 μg/mL Yersinia” value in data set [1] is recorded as “* (key: *: percent cytotoxicity above 75% at 50 μg/mL; **: cytotoxicities below 75% at 50 μg/mL)”. The EC50 on LcrF (VirF) and on ExsA was above 25.1 µM in each case.
For `O=C(C/C=C/c1ccccc1)Nc1ccc(-c2nc3ccc([N+](=O)[O-])cc3n2O)cc1` [N], in data set [1], the “Cytotoxicity at 50 μg/mL Yersinia” value was “* (key: *: percent cytotoxicity above 75% at 50 μg/mL; **: cytotoxicities below 75% at 50 μg/mL)”. Also, on LcrF (VirF), the concentration giving a half-maximal response (EC50) is above 25.1 µM. The “Cytotoxicity at 50 μg/mL Pseudomonas” value in the data set on P. aeruginosa is given as “* (percent cytotoxicities above 75% at 50 mg/mL)”.
As for `CC(=NO)c1ccc2nc(-c3ccc(NC(=O)c4ccc(N(C)C)cc4)cc3)n(O)c2c1` [U], the “Cytotoxicity at 50 μg/mL Yersinia” value in data set [1] was “* (key: *: percent cytotoxicity above 75% at 50 μg/mL; **: cytotoxicities below 75% at 50 μg/mL)”. Besides, the EC50 on LcrF (VirF) and on ExsA was above 25.1 µM each time.
As for `CCc1cc(-c2nc3ccc([N+](=O)[O-])cc3n2O)ccc1NC(=O)c1ccc(F)cc1` [Z], in data set [1], the “Cytotoxicity at 50 μg/mL Yersinia” value is given as “* (key: *: percent cytotoxicity above 75% at 50 μg/mL; **: cytotoxicities below 75% at 50 μg/mL)”. Also, the EC50 on LcrF (VirF) was 10.1 to 25 µM; on ExsA it was above 25.1 µM.

(Values after patent US20090170812A1, “Transcription factor modulating compounds and methods of use thereof” (priority 2006, published 2009).)
